Assay results taken from a melting point compilation (Tetko et al.; mined from patent text by program, amines drawn as free bases though some values may be those of a salt).

SMILES	melting point [°C]
N#Cc1nn(-c2c(Cl)cc(C(F)(F)F)cc2Cl)c(CO)c1SC(F)(F)F	118
O=C1c2ccccc2C(O)N1CCN1CCC(Cc2c[nH]c3ccc(F)cc23)CC1 (racemic)	183
CCCC(=O)Oc1cc(-c2nc3cc(F)ccc3s2)ccc1OC	125
CC(C)(CO)Cc1cc(C(C)(C)C)c(O)c(C(C)(C)C)c1	84 to 86
CCCCNC(=O)[C@@H](C[C@H](O)[C@H](CC1CCCCC1)N=[N+]=[N-])C(C)C	100
Nc1nc2c(sc(=S)n2C2OC(COC(=O)c3ccccc3)C(OC(=O)c3ccccc3)C2OC(=O)c2ccccc2)c(=O)[nH]1 (centres undefined)	230 to 233
COc1ccc(CNc2c(OCCC(O)c3ccc(Cl)cc3)n[nH]c(=O)c2Br)cc1OC (centres undefined)	190 to 196
O=C(NCCCc1ccncc1)N1CCOCC1	94 to 98
CCCCCC(Cc1cnc(SCCC)n1Cc1ccccc1Cl)C(=O)O (centres undefined)	122 to 124
O=C(NCc1ccc(F)cc1)c1sc2ccccc2c1Br	120 to 125
CC(C)(C)OC(=O)C=CC1C(C(=O)OC(C#N)c2ccc(F)c(Oc3ccccc3)c2)C1(C)C (centres undefined)	114
C=C(c1ccccc1)[C@@H](C)[C@H](NC(=O)C(F)(F)F)C(=O)O	108
NNC1NS(=O)(=O)c2ccccc21 (centres undefined)	249
CCCc1c(OCc2cccc(C=CC(=O)O)c2)ccc(C(C)=O)c1O	195 to 196
Cc1ccc(S(=O)(=O)NCCN2C(=O)C3(CCCC3)c3ccccc32)cc1	60
COc1cc(O)cc(C(F)(F)F)c1	75
CCOc1ccccc1C(=O)NC(=O)NC1CN2CCC1CC2 (centres undefined)	198 to 199
CCOc1ccc(-c2ccc(C3COC(c4c(Cl)cncc4Cl)=N3)cc2)cc1 (centres undefined)	121 to 122
CCOC(=O)CCCCCN(C)S(=O)(=O)C1=C(C)NC(C)=C(C(=O)OC)C1c1cccc([N+](=O)[O-])c1 (centres undefined)	83 to 86
Oc1ccc2cc(CNCc3ccccc3)ccc2c1	120 to 122
CCOC(=O)c1cn(-c2ccc(OC)cc2F)c2cc(F)c(F)cc2c1=O	170 to 171
N#Cc1nn(-c2c(Cl)cc(C(F)(F)F)cc2Cl)cc1C1C=CCC1 (centres undefined)	76 to 80

SMILES	melting point [°C]
CN(C)C=Nc1c(C#N)c(=O)n(C)c(=O)n1C	174 to 175
CCC[C@H](CO)Nc1nc(-c2ccc(Br)cc2)cs1	61 to 63
O=C(CN1C(=O)c2ccccc2S1(=O)=O)OC1CCCCC1	83
CC(C)CC(NC(=O)OCc1ccccc1)C(=O)NC(Cc1cccc2ccccc12)C(=O)CSCc1ccco1 (centres undefined)	71 to 74
O=C(Nc1nncs1)c1ccc2ccccc2c1	197 to 199
CCOC(=O)C1(C(C)C)OC2(O)C3CCCN3C(=O)C(Cc3ccccc3)N2C1=O (centres undefined)	152 to 154
O=C(O)Cn1cc(Cc2nc3c(F)c(F)cc(F)c3s2)c2ccc(N3CCOCC3)cc21	178 to 180
N#Cc1nc2ccc(Cl)cc2c2c1ncn2-c1ccccc1Cl	248 to 250
COC(=O)CC[C@@H](C(N)=O)N1Cc2c(OCc3ccc(CN4CCOCC4)cc3)cccc2C1=O	66 to 68
COc1ccc(C(C#N)N2C(=O)c3cccc(NC(C)=O)c3C2=O)cc1OC1CCCC1 (centres undefined)	124 to 126
COc1ccc(S(=O)(=O)n2c(=O)[nH]c3cc(Cl)ccc3c2=O)cc1OC	> 250
CCn1cnc2c(Nc3cccc(F)c3)nc(NCCO)nc21	184
Clc1nc(NCc2ccc(-c3ccccn3)cc2)c2[nH]cnc2n1	> 250
COn1c(Br)c(C#N)c(Br)c1-c1ccc(Cl)cc1	195 to 197
O=P(O)(O)Cc1ccc(CS(=O)(=O)c2ccccc2)cc1	> 280
CCOC(=O)c1cn(CC)c2cc(-c3cc(C)no3)ccc2c1=O	180 to 185
CCCC1C=C2NC(=O)CC[C@]2(C)[C@H]2CC[C@]3(C)[C@@H]([C@H](C)CCCC(C)C)CC[C@H]3[C@H]12 (some centres undefined)	91 to 94
CCN(C(=O)Cn1c(=O)n(C)c2nc(-c3ccccc3)ncc21)c1ccccc1	240 to 242
C=CCNC(=O)Cc1c[nH]c2ccc(CCS(=O)(=O)NC)cc12	123 to 125
Cc1ccc2c(O)cnnc2c1	114 to 115
O=c1[nH]c(=O)n(Cc2cccc(OCc3noc(-c4ccc(Cl)cc4)n3)c2)o1	159 to 160

Results, then the molecule that gave them:

melting point [°C]	SMILES
182 to 184	Oc1ccc2oc(-c3ccc(O)c4ccccc34)nc2c1
224 to 225	N#Cc1cc(C(F)(F)F)[nH]c1-c1ccc(C=O)o1
95 to 96	COC(=O)C(N)Cc1ccc(OCCN(C)c2nc3ccccc3o2)cc1 (centres undefined)
220 to 222	CC1(C)CN(C(=O)Nc2cccnc2)c2cc(C#N)ccc21
165 to 166	COc1ccc(S(N)(=O)=O)cc1C(C)O (centres undefined)
101 to 103	CC1(C)CC(=O)c2c(C3CCCCC3)sc(-c3nccs3)c2C1
130 to 134	CC(=N)NS(=O)(=O)C=Cc1ccccc1
106 to 109	CC(C)(C)c1cc(CCC(=O)Oc2ccccc2)ccc1O
217 to 222	N#Cc1ccc(-c2cn(-c3ccc(C#N)cc3)c(C(O)c3ccccc3)n2)cc1 (centres undefined)
147 to 148	COc1ccc(C2=NN(c3ccccn3)C(=O)[C@H]3CC=CC[C@@H]23)cc1OC (relative stereo)
154 to 155	CCOC(=O)/C=C/c1cn(-c2ccccc2)nc1OCc1ccc(OCc2nc(-c3ccccc3)oc2C)cc1
278	Nc1nc(/C=C/c2ccc([N+](=O)[O-])cc2)cs1
111 to 113	O=C(C(=O)c1cccc(Br)c1)c1cc[nH]c1
93 to 94	CCCc1cc(NC(=O)C(=O)OCC)sc1C(=O)OCC
93	O=[N+]([O-])c1cc2c(c([N+](=O)[O-])c1)CCCC2
260 to 262	CCOC(=O)c1ccc(NC(=O)N2CCn3c(c(C(N)=O)c(Cl)c3-c3ccccc3)C2)cc1
228 to 230	O=C(O)Cc1cccc2c(-c3ccc(C(F)(F)F)cc3)nccc12
120	CC12CCC(C1)C1(C)Oc3ccc(Br)cc3C21C (centres undefined)
188 to 189	CN1C(=O)C(c2ccccc2)Oc2cccc3nc4c(c1c23)CCCC4 (centres undefined)

melting point [°C]	SMILES
220 to 221	CC#CC(=O)Nc1ccc(-n2nc(C(F)(F)F)cc2C(F)(F)F)cc1
214 to 217	Cc1ccc(C(=O)Nc2ccc(N3CCN(C)CC3)c(C(F)(F)F)c2)cc1Nc1nccc(-c2cccnc2)n1
316 to 318	COc1ccccc1-n1c(=O)[nH]c2c(C(N)=O)nc(-c3cccc(C#N)c3)nc21
200 to 202	CC(C)n1nc(-c2cnc(N3CCOCC3)nc2-c2ccccc2)ccc1=O
111 to 113	COc1ccc(CN2C(=O)CNS2(=O)=O)cc1
> 260	O=C(O)c1ccc(NC(=O)c2ccc(Cl)cc2)cc1
151 to 152	CCCCc1nc(C(C)(C)O)c(C#N)n1C(c1ccccc1)(c1ccccc1)c1ccccc1
189 to 190	CC(=O)c1ccc(Cc2c(Cl)cc(N3N=CCNC3=O)cc2Cl)cc1
131 to 133	O=c1[nH]c(=O)n(CCCCN2CCC(OC(c3ccccc3)c3ccccc3)CC2)c2ccccc12
81 to 87	O=C1C(CCO)Oc2ccccc2N1Cc1ccc2ccccc2c1 (centres undefined)
296 to 298	C=CC(=O)Nc1ccc2c(Nc3cccc(Cl)c3)ncnc2c1
231 to 232	N#Cc1cc(-c2c3ccccc3cc3sc4ccccc4c23)ccc1O
251	Cc1c(C(=O)Nc2ccc(N3CCC(N4CCOCC4)CC3)c(C#N)c2)cnn1-c1ccccn1
163 to 166	O=C(Nc1ccccc1)Nc1cc(F)ccc1C(=O)O
256 to 257	c1ccc2c(c1)[nH]c1cnc(-c3nc(C4CC4)no3)cc12
217	Cc1cc(-c2cc(C(F)(F)F)n3cnc(C#N)c3n2)ccc1C(F)(F)F
99	CCOC(=O)c1c(C)nc2c(cnn2CCCC#N)c1OCC
151 to 152	Cc1c(NC(=O)CC(C)(C)C)cc2c(c1C)OC(C)(C)C2Nc1ccccc1 (centres undefined)
143 to 144	C=Cc1nc2cc(-c3ccc(C#N)cc3)ccc2o1

melting point [°C]	SMILES
94.5 to 95.5	CC(=O)C(=Cc1cccc([N+](=O)[O-])c1)C(=O)OCCBr
70	CC1CCCN(CC(O)c2ccccc2)C1 (centres undefined)
118 to 119	COc1ccc(-c2coc3ccc(-c4nnc(SCc5cccc(OC)c5)o4)cc23)cc1
180 to 182	CCc1cc(-c2nc(C)c(-c3ccnc(Nc4cccc(CNC(C)=O)c4)n3)s2)ccn1
138 to 142	CCOC(=O)NN(C(=O)NC)S(=O)(=O)c1ccccc1
62 to 63	COc1cc2ccc(C)cc2c(C(C)C)c1OC
238 to 240	COc1ccc(-n2c(=O)n(OCc3ccccc3)c(=O)c3cc(F)c(Cl)nc32)cc1
176 to 178	CCc1nn(C2CCCC2)c2cc(C(=O)Nc3cccc4ncccc34)ccc12
158 to 160	CCCC(C(=O)OCC)c1ccc(N2Cc3ccccc3C2=N)cc1 (centres undefined)
136 to 137	COC(=O)NC(CCc1ccc(Br)cc1)C(=O)O (centres undefined)
173 to 175	COC(=O)Cn1c(C(=O)Nc2nc(-c3cc(OC)c(C)cc3OC)c(CCC3CCCCC3)s2)cc2cc(OC)ccc21
321 to 325	O=C(O)C1(c2ccc(Nc3nc(C4CCCC4)nc4c3CCC4)cc2)CCCC1
114 to 115	COc1ccc(C(=O)C2=C(c3ccccc3)c3ccccc3C2)cc1
309	Cc1cc(-c2cc(C(F)(F)F)n3ncc(C(=O)Nc4nc(C)c(S(N)(=O)=O)s4)c3n2)ccc1C(F)(F)F
299	NC(=O)c1ccc2c(c1)C(=O)c1ccccc1C2=O
65	CCCC(=O)c1ccc(OC)c(C(=O)Cl)c1
121 to 123	CC=NN(C(=O)c1ccc(C)cc1)c1ccc2c(c1)OCCO2
154 to 156	O=C(OCC1CC(O)C(n2cc(F)c(=O)[nH]c2=O)O1)c1ccccc1 (centres undefined)
